# Test results as given in patent US4760087A, “Phenol derivatives and pharmaceutical compositions containing these compounds” (Gruenenthal GmbH, priority 1985, dated 1988).
# Target: T1, 5-lipoxygenase (Rattus norvegicus, UniProt P12527)
# T1 construct: endogenous in cells; host or cells: rat basophilic leukemia cells
# T1 sequence (P12527 1-673): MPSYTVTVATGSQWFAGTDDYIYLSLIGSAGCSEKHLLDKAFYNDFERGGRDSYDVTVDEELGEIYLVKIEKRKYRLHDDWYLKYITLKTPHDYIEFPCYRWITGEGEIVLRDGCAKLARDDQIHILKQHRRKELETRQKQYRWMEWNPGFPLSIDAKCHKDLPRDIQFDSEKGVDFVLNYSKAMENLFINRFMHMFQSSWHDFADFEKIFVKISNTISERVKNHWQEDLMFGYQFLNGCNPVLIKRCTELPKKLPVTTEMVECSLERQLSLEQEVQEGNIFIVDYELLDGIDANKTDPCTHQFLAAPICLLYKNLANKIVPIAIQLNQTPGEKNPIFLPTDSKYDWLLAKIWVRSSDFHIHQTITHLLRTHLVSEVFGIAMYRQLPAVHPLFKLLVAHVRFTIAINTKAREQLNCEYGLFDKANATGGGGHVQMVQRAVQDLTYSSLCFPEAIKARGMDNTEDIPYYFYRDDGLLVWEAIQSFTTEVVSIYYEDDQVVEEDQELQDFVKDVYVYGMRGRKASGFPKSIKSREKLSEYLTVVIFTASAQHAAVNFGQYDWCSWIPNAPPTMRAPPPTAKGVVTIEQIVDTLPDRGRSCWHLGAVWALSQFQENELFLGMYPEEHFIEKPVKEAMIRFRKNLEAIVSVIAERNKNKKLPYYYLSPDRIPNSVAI
# Assay: Inhibition of 5-lipoxygenase in rat basophilic leukemia cells (5-HETE and LTB4 formation from [14C]-arachidonic acid)
# Assay type: cell-based
# Details: indomethacin 10 μM, A 23187, room temperature, 5 minutes, read-out: IC50 for inhibition of 5-lipoxygenase (I)
# Protocol: To determine the inhibition of 5-lipoxygenase rat basophilic leukemia cells were cultured in vitro, and after a cell concentration of about 10^6 cells/ml had been obtained, the cells were harvested by centrifugation at 400 g. The precipitate was suspended in 50 mM potassium phosphate buffer of pH 7.4 at 1.5×10^7 cells/ml.
# To 1 ml each of this suspension there was added indomethacin (10 μM) and calcium chloride (2 mM) and then the mixture was incubated in presence or absence of a test compound with [^14 C]-arachidonic acid and the calcium ionophore A 23 187 [Chaney et al., J. Am. Chem. Soc. 96: 1932-3 (1974)] at room temperature for 5 minutes. The mixture was acidified to pH 5 and extracted with ethyl acetate to isolate the metabolites of arachidonic acid formed by the enzymatic action of 5-lipoxygenase. These were separated by thin layer chromatography using a solvent mixture known to be suitable for leukotriene analysis [c.f. Jakschik et al., Biochem. Biophys. Res. Commun. 102, 624 (1984)]. The distribution of the radioactivity among the different metabolites was measured with a Thin Layer Scanner (TLC linear analyzer). By bringing into relationship the percentages of the amount of 5-hydroxyeicosatetraenoic acid (5-HETE) and leukotriene B4 (LTB4) formed under the action of 5-lipoxygenase to the amount or the concentration, respectively, of the total radioactivity used and of the test compound of formula I the "IC50 -value I" (i.e. the concentration of the test compound which causes an 50%-inhibition of the 5-lipoxygenase) is determined.
row,SMILES,IC50
1,"OC/C=C\CCCCCC/C=C\c1ccc(O)c(O)c1 [Example 9, 1-(3',4'-Dihydroxyphenyl)-11-hydroxy-undeca-1Z,9Z-diene]",310 nM
2,"CC(C)(O)C#CCCCCCCC#Cc1ccc(O)c(O)c1 [Example 13, 1-(3',4'-Dihydroxyphenyl)-11-hydroxy-11-methyl-dodeca-1,9-diyne]",350 nM
3,"Oc1ccc(C#CCCCCCCC#CC(O)c2ccccc2)cc1O (stereo not shown) [Example 15, 1-(3',4'-Dihydroxyphenyl)-11-hydroxy-11-phenyl-undeca-1,9-diyne]",320 nM

# Now those with a lower IC50, led by results:
row,IC50,SMILES
1,150 nM,"OCC#CCCCCCCC#Cc1ccc(O)c(O)c1 [Example 7, 1-(3',4'-Dihydroxyphenyl)-11-hydroxy-undeca-1,9-diyne]"
2,210 nM,"CCCCCC(O)C#CCCCCCCC#Cc1ccc(O)c(O)c1 (stereo not shown) [Example 14, 1-(3',4'-Dihydroxyphenyl)-11-hydroxy-hexadeca-1,9-diyne]"

# Target: T2, cyclooxygenase (Ovis aries, UniProt P05979)
# T2 construct: suspension of sheep seminal vesicle microsomes; from tissue; host or cells: sheep seminal vesicle microsomes
# T2 sequence (P05979 25-600): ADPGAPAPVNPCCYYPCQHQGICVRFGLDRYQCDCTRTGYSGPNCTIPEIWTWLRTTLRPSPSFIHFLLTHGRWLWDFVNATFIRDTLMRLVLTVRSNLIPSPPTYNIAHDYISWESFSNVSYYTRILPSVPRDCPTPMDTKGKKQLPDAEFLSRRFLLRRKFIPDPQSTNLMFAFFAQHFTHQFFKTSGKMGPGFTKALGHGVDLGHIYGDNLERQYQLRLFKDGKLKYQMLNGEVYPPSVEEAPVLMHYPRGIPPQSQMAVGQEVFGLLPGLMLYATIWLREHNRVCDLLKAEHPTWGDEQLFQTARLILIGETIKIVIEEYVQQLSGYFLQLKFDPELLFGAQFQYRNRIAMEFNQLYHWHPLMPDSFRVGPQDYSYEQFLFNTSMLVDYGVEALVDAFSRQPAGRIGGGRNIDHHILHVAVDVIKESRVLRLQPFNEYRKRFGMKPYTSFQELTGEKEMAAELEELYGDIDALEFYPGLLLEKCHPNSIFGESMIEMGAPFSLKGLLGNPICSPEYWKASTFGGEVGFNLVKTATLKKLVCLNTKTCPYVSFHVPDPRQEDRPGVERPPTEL
# Assay: Inhibition of cyclooxygenase in sheep seminal vesicle microsomes
# Assay type: biochemical
# Details: cyclooxygenase IC50 (II) / 5-lipoxygenase IC50 (I)
# Protocol: The effect of the test compounds on the activity of cyclooxygenase was tested usinfg a suspension of sheep seminal vesicle microsomes in 50 mM potassium phosphate buffer of pH 7.5 which was incubated for 10 minutes at room temperature with the test compound and [^14 C]-arachidonic acid. After acidification with glacial acetic acid the mixture was extracted with ethyl acetate and the residue obtained after evaporation of the extract separated by thin layer chromatography on plates precoated with silica gel using the solvent system ether/hexane/glacial acetic acid (50:50:1).
row,SMILES,Quotient IC50 II/IC50 I
1,"OC/C=C\CCCCCC/C=C\c1ccc(O)c(O)c1 [Example 9, 1-(3',4'-Dihydroxyphenyl)-11-hydroxy-undeca-1Z,9Z-diene]",90.3
2,"CC(C)(O)C#CCCCCCCC#Cc1ccc(O)c(O)c1 [Example 13, 1-(3',4'-Dihydroxyphenyl)-11-hydroxy-11-methyl-dodeca-1,9-diyne]",88.6
3,"Oc1ccc(C#CCCCCCCC#CC(O)c2ccccc2)cc1O (stereo not shown) [Example 15, 1-(3',4'-Dihydroxyphenyl)-11-hydroxy-11-phenyl-undeca-1,9-diyne]",> 320.0

# Next, values leading:
row,Quotient IC50 II/IC50 I,SMILES
1,253.3,"OCC#CCCCCCCC#Cc1ccc(O)c(O)c1 [Example 7, 1-(3',4'-Dihydroxyphenyl)-11-hydroxy-undeca-1,9-diyne]"
2,119.1,"CCCCCC(O)C#CCCCCCCC#Cc1ccc(O)c(O)c1 (stereo not shown) [Example 14, 1-(3',4'-Dihydroxyphenyl)-11-hydroxy-hexadeca-1,9-diyne]"

# Same assay, conditions: sheep seminal vesicle microsomes, pH 7.5, 10 minutes, room temperature; read-out: IC50 for inhibition of cyclooxygenase (II)
row,SMILES,IC50
1,"OC/C=C\CCCCCC/C=C\c1ccc(O)c(O)c1 [Example 9, 1-(3',4'-Dihydroxyphenyl)-11-hydroxy-undeca-1Z,9Z-diene]",28000 nM
2,"CC(C)(O)C#CCCCCCCC#Cc1ccc(O)c(O)c1 [Example 13, 1-(3',4'-Dihydroxyphenyl)-11-hydroxy-11-methyl-dodeca-1,9-diyne]",31000 nM
3,"Oc1ccc(C#CCCCCCCC#CC(O)c2ccccc2)cc1O (stereo not shown) [Example 15, 1-(3',4'-Dihydroxyphenyl)-11-hydroxy-11-phenyl-undeca-1,9-diyne]",> 100000 nM

# More lines, now with the values ahead:
row,IC50,SMILES
1,38000 nM,"OCC#CCCCCCCC#Cc1ccc(O)c(O)c1 [Example 7, 1-(3',4'-Dihydroxyphenyl)-11-hydroxy-undeca-1,9-diyne]"
2,25000 nM,"CCCCCC(O)C#CCCCCCCC#Cc1ccc(O)c(O)c1 (stereo not shown) [Example 14, 1-(3',4'-Dihydroxyphenyl)-11-hydroxy-hexadeca-1,9-diyne]"

# Tested on: Sprague-Dawley-rats
# Assay: Inhibition of kaolin-induced paw oedema, test compound given intraperitoneally three hours after induction
# Assay type: in vivo
# Details: 46.4 mg/kg intraperitoneally
# Protocol: By subplantar injection of 0.1 ml of a kaolin suspension (100 mg/ml) into Sprague-Dawley-rats, an oedema is induced and the paw volume is measured plethysometrically every hour. Three hours after the induction of the oedema a suspension of the respective test compound in a 1% carboxymethylcellulose sodium solution (5 ml/kg body weight of the animal) is administered intraperitoneally. In table 2 the percentage of alteration in the paw volume due to the inhibition of the oedema by the test compound in relation to the volume determined immediately before the test compound was applied (i.e. the initial value) is shown. (FIGS. of more than 100% indicate a decrease in the volume of the oedema below the initial value): […]
row,SMILES,Time after administration of the test compound (of maximum inhibition)
1,"OCC#CCCCCCCC#Cc1ccc(O)c(O)c1 [Example 7, 1-(3',4'-Dihydroxyphenyl)-11-hydroxy-undeca-1,9-diyne]",1 h
2,"CCCCCC(O)C#CCCCCCCC#Cc1ccc(O)c(O)c1 (stereo not shown) [Example 14, 1-(3',4'-Dihydroxyphenyl)-11-hydroxy-hexadeca-1,9-diyne]",1 h

# Same assay, conditions: 46.4 mg/kg intraperitoneally, 3 h after kaolin; more than 100% = decrease below initial value
row,SMILES,% Inhibition (Maximum) of oedema
1,"OCC#CCCCCCCC#Cc1ccc(O)c(O)c1 [Example 7, 1-(3',4'-Dihydroxyphenyl)-11-hydroxy-undeca-1,9-diyne]",65%
2,"CCCCCC(O)C#CCCCCCCC#Cc1ccc(O)c(O)c1 (stereo not shown) [Example 14, 1-(3',4'-Dihydroxyphenyl)-11-hydroxy-hexadeca-1,9-diyne]",68%

# Same assay, conditions: 100.0 mg/kg intraperitoneally
row,SMILES,Time after administration of the test compound (of maximum inhibition)
1,"OCC#CCCCCCCC#Cc1ccc(O)c(O)c1 [Example 7, 1-(3',4'-Dihydroxyphenyl)-11-hydroxy-undeca-1,9-diyne]",1 h
2,"CCCCCC(O)C#CCCCCCCC#Cc1ccc(O)c(O)c1 (stereo not shown) [Example 14, 1-(3',4'-Dihydroxyphenyl)-11-hydroxy-hexadeca-1,9-diyne]",2 h
3,"Oc1ccc(C#CCCCCCCC#CC(O)c2ccccc2)cc1O (stereo not shown) [Example 15, 1-(3',4'-Dihydroxyphenyl)-11-hydroxy-11-phenyl-undeca-1,9-diyne]",2 h

# Same assay, conditions: 100.0 mg/kg intraperitoneally, 3 h after kaolin; more than 100% = decrease below initial value
row,SMILES,% Inhibition (Maximum) of oedema
1,"OCC#CCCCCCCC#Cc1ccc(O)c(O)c1 [Example 7, 1-(3',4'-Dihydroxyphenyl)-11-hydroxy-undeca-1,9-diyne]",164%
2,"CCCCCC(O)C#CCCCCCCC#Cc1ccc(O)c(O)c1 (stereo not shown) [Example 14, 1-(3',4'-Dihydroxyphenyl)-11-hydroxy-hexadeca-1,9-diyne]",127%
3,"Oc1ccc(C#CCCCCCCC#CC(O)c2ccccc2)cc1O (stereo not shown) [Example 15, 1-(3',4'-Dihydroxyphenyl)-11-hydroxy-11-phenyl-undeca-1,9-diyne]",73%

# Tested on: Sprague-Dawley-rats
# Assay: Inhibition of kaolin-induced paw oedema, test compound injected in each paw simultaneously with kaolin
# Assay type: in vivo
# Details: 1 mg injected in each paw simultaneously with kaolin
# Protocol: By subplantar injection of 0.1 ml of a kaolin suspension (100 mg/ml) into Sprague-Dawley-rats, an oedema is induced and the paw volume is measured plethysometrically every hour. Three hours after the induction of the oedema a suspension of the respective test compound in a 1% carboxymethylcellulose sodium solution (5 ml/kg body weight of the animal) is administered intraperitoneally. In table 2 the percentage of alteration in the paw volume due to the inhibition of the oedema by the test compound in relation to the volume determined immediately before the test compound was applied (i.e. the initial value) is shown. (FIGS. of more than 100% indicate a decrease in the volume of the oedema below the initial value):
# In other experiments the test compound was administered simultaneously with the application of the kaolin suspension by injection of 1 mg of the test compound dissolved in 0.1 ml of a 1% carboxymethylcellulose sodium solution in each paw. The following maximum values of inhibition of the oedema or the formation of the oedema, respectively, were determined: […]
SMILES,% Inhibition (Maximum) of oedema,Time after administration of the test compound (of maximum inhibition)
"OCC#CCCCCCCC#Cc1ccc(O)c(O)c1 [Example 7, 1-(3',4'-Dihydroxyphenyl)-11-hydroxy-undeca-1,9-diyne]",36%,2 h
"CCCCCC(O)C#CCCCCCCC#Cc1ccc(O)c(O)c1 (stereo not shown) [Example 14, 1-(3',4'-Dihydroxyphenyl)-11-hydroxy-hexadeca-1,9-diyne]",46%,2 h
"Oc1ccc(C#CCCCCCCC#CC(O)c2ccccc2)cc1O (stereo not shown) [Example 15, 1-(3',4'-Dihydroxyphenyl)-11-hydroxy-11-phenyl-undeca-1,9-diyne]",64%,5 h
